Assay results: patent US9981969B2, “Imidazole derivatives and methods of use thereof for improving the pharmacokinetics of a drug” (MERCK SHARP & DOHME CORP., priority 2013, dated 2018)

Assays:
[1] = molecular target: T1, human CYP11B1 (Homo sapiens, UniProt P15538); assay: IC50 vs CYP11B1 by measurement of cortisol synthesis in V79 cells; format: cell-based; details: V79 cells expressing human CYP11B1, 1500 nM RSS, cortisol HTRF
T1 construct: expressed in transfected cells
T1 sequence (P15538 25-503): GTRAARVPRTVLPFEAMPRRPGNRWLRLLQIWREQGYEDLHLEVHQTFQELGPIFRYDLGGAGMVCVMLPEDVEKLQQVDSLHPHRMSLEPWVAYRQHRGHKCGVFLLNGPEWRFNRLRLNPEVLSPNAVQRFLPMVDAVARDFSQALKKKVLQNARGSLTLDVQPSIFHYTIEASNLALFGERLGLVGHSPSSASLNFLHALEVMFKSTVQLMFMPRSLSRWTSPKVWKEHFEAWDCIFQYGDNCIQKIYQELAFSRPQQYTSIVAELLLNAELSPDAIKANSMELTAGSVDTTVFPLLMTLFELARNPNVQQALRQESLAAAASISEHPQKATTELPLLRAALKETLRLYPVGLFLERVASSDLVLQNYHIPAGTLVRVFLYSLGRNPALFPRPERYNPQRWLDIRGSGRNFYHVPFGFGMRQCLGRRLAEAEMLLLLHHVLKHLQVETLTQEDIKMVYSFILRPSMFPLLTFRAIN
Description: (§1) This assay was performed in a standard 384-well plate design using cultured V79 cells stably expressing human CYP11B1 or human CYP11B2. Test compounds at 10 concentrations (for example, 10000, 3333.3, 1111.1, 370.4, 123.5, 41.2, 13.7, 4.6, 1.5 and 0.5 nM) were added in 384-well plate after the cell-seeding procedure. The incubation substrate contains 1500 nM RSS for CYP11B1 assay/750 nM DOC for CYP11B2 assay. The Cortisol/Aldosterone production of cell culture supernatant was determined by Cortisol/Aldosterone HTRF kit after for about 15 hours incubation at RT (protect from light). IC50 (nM) values were calculated from the percent inhibition observed for each test compound at 10 concentrations.
(§2) The assay plate was read using Envision (Perkin Elmer, Waltham, Mass.) at 665 nm and 590 nm (using Filter Barcode of 217#, 205#; Mirror Barcode of 446#).
(§3) Data are analyzed using Assay Data Analyzer. All ratio data (665 nm/590 nm) are back calculated according to the standard curve, resulting in Cortisol/Aldosterone concentrations. IC50 (nM) values are reported as the Inflection Point (IP) of a four parameter fit of the titration data.
(§4) The following equation was used to calculate the % inhibition: % Activity=100×{1−(Sample_back calculated Cortisol/Aldosterone concentration−LC_back calculated Cortisol/Aldosterone concentration)/(HC_back calculated Cortisol/Aldosterone concentration−LC_back calculated Cortisol/Aldosterone concentration)} Curve Fitting: Four Parameter Logistic: […]

[2] = molecular target: T2, CYP3A4 (Homo sapiens, UniProt P08684); assay: Cocktail assay for CYPs in human liver microsomes, midazolam 1′-hydroxylation (3A4); format: biochemical; details: 2 μM midazolam, 10 min at 37° C.
T2 construct: 0.1 mg/mL protein human liver microsomes (BD Gentest); tissue BD Gentest; host or cells: human liver microsomes
T2 sequence (P08684 whole entry): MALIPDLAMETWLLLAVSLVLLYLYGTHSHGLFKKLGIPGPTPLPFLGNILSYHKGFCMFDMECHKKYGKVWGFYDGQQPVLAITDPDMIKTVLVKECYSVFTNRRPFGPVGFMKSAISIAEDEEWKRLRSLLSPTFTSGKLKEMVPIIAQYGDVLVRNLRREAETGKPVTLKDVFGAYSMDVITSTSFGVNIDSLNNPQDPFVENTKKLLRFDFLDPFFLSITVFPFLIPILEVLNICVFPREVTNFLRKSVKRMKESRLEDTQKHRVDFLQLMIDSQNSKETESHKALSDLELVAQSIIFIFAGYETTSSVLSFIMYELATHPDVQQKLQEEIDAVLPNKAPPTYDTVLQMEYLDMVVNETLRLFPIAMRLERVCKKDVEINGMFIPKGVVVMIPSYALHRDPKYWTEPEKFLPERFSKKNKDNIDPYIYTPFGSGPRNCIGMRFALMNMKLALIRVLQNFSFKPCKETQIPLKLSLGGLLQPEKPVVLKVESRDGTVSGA
Description: (§5) This assay was performed in a standard 96-well plate design. IC50 values were calculated from the percent inhibition observed for each test compound at 6 concentrations (for example, 0.0032, 0.016, 0.08, 0.4, 2 and 10 μM). The incubation substrate mix contains 10 μM phenacetin (1A2), 5 μM diclofenac (2C9), 30 μM mephenytoin (2C19), 5 μM dextromethorphan (2D6) and 2 μM midazolam (3A4), 0.1 mg/mL protein human liver microsomes (BD Gentest), 1 mM NAPDH, 3.3 mM MgCl2 and 100 mM potassium phosphate buffer (pH 7.4). The production of the metabolite of each probe substrate was determined after incubation for 10 min at 37° C. Quantitation of the metabolite peak area ratio against an internal standard (tolbutamide) was determined by LC/MS/MS analysis following acetonitrile treatment of the incubations.
(§6) Samples were analyzed in the MRM mode with a SCIEX API-4000 mass spectrometer (Applied Biosystems, Foster City, Calif.), with a Shimadzu LC-20 AD pump (Shimadzu corporation, Kyoto, JP) and a CTC PAL autosampler (Agilent Technologies, Switzerland). A Phenomenex, Luna, 5 μm, 100A, 2.00×30 mm HPLC column was used for the separation. The mobile phases were: (A) 0.1% formic acid in water and (B) 0.1% formic acid in acetonitrile. The binary gradient was as follows. AutoSampler: CTC PAL
(§7) The peak area ratio of the analyte to the internal standard was used to quantify the metabolite. The values of peak area ratios in the presence of test compound were compared to those of maximum or minimum controls and were expressed as % inhibition by interpolating between the maximum and minimum peak area ratios. Incubations with no inhibitor were defined as the maxima. The following equation was used to calculate the % inhibition: [1−[(X−Low control)/(High control−Low control)]]*100 For the IC50 calculation, SigmaPlot was used to plot the mean % inhibition versus the test compound concentrations and for non-linear regression analysis of the data. Depending on the range of data points defining the inhibition curve, the data may have been fit to the 4-parameter logistic equation.

[3] = molecular target: T3, human CYP11B2 (Homo sapiens, UniProt P19099); assay: IC50 vs CYP11B2 by measurement of aldosterone synthesis in V79 cells; format: cell-based; details: V79 cells expressing human CYP11B2, 750 nM DOC, aldosterone HTRF
T3 construct: expressed in transfected cells
T3 sequence (P19099 25-503): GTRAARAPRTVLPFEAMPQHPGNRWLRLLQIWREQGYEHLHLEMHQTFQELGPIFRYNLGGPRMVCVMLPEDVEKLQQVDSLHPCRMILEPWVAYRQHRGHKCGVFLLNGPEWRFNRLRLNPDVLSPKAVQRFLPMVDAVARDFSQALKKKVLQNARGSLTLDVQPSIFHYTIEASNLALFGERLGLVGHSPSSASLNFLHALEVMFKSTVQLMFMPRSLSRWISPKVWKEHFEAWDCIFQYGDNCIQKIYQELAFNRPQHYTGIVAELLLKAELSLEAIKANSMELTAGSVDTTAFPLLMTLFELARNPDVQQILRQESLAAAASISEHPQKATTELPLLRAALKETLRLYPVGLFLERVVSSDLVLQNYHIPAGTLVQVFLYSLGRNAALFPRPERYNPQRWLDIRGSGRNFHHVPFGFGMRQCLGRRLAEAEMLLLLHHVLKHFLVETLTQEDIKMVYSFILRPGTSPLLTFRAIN
Description: as §1, §2, §3, §4

[4] = molecular target: T4, CYP2D6 (Homo sapiens, UniProt P10635); assay: Cocktail assay for CYPs in human liver microsomes, dextromethorphan O-demethylation (2D6); format: biochemical; details: 5 μM dextromethorphan, 10 min at 37° C.
T4 construct: 0.1 mg/mL protein human liver microsomes (BD Gentest); tissue BD Gentest; host or cells: human liver microsomes
T4 sequence (P10635 whole entry): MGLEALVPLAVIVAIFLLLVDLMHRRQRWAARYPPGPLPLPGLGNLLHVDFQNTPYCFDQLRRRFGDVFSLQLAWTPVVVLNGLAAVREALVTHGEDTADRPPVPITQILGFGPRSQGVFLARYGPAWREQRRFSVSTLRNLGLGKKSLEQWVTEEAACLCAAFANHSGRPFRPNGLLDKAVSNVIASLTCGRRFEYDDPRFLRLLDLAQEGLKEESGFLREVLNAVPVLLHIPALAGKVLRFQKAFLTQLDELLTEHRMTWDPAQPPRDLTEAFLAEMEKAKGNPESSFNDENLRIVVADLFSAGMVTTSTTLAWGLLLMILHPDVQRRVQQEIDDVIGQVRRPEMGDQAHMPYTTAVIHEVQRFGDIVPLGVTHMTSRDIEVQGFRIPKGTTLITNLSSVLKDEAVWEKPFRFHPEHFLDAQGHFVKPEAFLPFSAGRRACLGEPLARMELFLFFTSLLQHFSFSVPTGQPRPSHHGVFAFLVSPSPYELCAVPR
Description: as §5, §6, §7

[5] = molecular target: T5, CYP2C9 (Homo sapiens, UniProt P11712); assay: Cocktail assay for CYPs in human liver microsomes, diclofenac 4′-hydroxylation (2C9); format: biochemical; details: 5 μM diclofenac, 10 min at 37° C.
T5 construct: 0.1 mg/mL protein human liver microsomes (BD Gentest); tissue BD Gentest; host or cells: human liver microsomes
T5 sequence (P11712 whole entry): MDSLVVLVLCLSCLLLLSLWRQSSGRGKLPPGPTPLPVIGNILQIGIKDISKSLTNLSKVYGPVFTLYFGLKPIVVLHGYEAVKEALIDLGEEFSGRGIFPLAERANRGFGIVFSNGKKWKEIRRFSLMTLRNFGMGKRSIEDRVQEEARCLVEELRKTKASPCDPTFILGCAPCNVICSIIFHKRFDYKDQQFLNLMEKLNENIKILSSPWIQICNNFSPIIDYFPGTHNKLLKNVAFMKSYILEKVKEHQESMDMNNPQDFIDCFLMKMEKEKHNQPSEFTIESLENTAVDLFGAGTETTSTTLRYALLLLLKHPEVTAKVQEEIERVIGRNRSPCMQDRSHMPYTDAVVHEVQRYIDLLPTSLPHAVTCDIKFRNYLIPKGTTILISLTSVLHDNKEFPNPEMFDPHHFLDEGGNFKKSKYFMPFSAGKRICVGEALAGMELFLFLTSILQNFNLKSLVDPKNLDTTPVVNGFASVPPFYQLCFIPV
Description: as §5, §6, §7

[6] = molecular target: T6, CYP2C19 (Homo sapiens, UniProt P33261); assay: Cocktail assay for CYPs in human liver microsomes, mephenytoin 4′-hydroxylation (2C19); format: biochemical; details: 30 μM mephenytoin, 10 min at 37° C.
T6 construct: 0.1 mg/mL protein human liver microsomes (BD Gentest); tissue BD Gentest; host or cells: human liver microsomes
T6 sequence (P33261 whole entry): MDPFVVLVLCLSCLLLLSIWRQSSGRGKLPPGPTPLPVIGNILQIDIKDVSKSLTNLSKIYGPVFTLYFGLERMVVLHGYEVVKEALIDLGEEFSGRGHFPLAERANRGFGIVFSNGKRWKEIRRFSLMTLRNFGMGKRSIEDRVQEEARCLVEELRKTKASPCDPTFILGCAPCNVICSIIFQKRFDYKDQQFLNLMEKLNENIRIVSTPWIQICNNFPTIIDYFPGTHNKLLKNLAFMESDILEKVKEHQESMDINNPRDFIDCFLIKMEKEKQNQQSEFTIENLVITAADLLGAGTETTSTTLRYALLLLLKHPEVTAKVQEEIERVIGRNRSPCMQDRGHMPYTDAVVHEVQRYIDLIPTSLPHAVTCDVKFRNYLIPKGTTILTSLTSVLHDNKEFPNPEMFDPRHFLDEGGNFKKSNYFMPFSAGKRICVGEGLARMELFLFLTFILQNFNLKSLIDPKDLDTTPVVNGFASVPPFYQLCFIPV
Description: as §5, §6, §7

[7] = molecular target: T7, CYP1A2 (Homo sapiens, UniProt P05177); assay: Cocktail assay for CYPs in human liver microsomes, phenacetin O-deethylation (1A2); format: biochemical; details: 10 μM phenacetin, 10 min at 37° C.
T7 construct: 0.1 mg/mL protein human liver microsomes (BD Gentest); tissue BD Gentest; host or cells: human liver microsomes
T7 sequence (P05177 1-516): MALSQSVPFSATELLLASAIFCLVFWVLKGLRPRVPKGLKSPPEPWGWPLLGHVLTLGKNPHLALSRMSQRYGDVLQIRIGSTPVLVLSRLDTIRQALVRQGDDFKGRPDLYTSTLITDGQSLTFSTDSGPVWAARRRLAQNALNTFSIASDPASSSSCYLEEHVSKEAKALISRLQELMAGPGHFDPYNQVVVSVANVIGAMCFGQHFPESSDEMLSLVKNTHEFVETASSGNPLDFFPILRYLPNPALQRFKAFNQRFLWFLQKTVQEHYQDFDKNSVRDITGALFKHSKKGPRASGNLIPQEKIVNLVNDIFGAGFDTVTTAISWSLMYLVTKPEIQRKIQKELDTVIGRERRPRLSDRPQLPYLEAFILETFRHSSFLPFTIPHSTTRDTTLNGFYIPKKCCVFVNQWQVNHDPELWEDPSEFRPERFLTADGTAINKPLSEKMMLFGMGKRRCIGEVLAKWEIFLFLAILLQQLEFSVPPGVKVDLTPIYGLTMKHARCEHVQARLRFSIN
Description: as §5, §6, §7

| Structure (SMILES) | IC50 [1] | IC50 [2] | IC50 [3] | IC50 [4] | IC50 [5] | IC50 [6] | IC50 [7] |
| --- | --- | --- | --- | --- | --- | --- | --- |
| C[C@@H](c1ccccc1-c1ccc(F)cc1)n1cncc1C(=O)N1CCC(N2CCNC(=O)CC2)CC1 [Compound 21] | > 50 µM | 0.0068 µM | > 50 µM | > 10 µM | > 10 µM | > 10 µM | > 10 µM |
| CO[C@H]1CN(C2CCN(C(=O)c3cncn3[C@@H](C)c3ccccc3-c3ccc(F)cc3)CC2)C[C@@H]1O [Compound 22] | 21.4 µM | 0.004 µM | > 50 µM | 9.75 µM | > 10 µM | > 10 µM | > 10 µM |
| CO[C@@H]1CN(C2CCN(C(=O)c3cncn3[C@@H](C)c3ccccc3-c3ccc(F)cc3)CC2)C[C@H]1O [Compound 23] | 26.3 µM | 0.0034 µM | > 50 µM | 9.72 µM | > 10 µM | > 10 µM | > 10 µM |
| C[C@@H](c1ccccc1-c1ccc(F)cc1)n1cncc1C(=O)N1CCC(NC2COC[C@H]2O)CC1 (some centres unmarked) [Compound 24] | > 50 µM | 0.0057 µM | > 50 µM | > 10 µM | > 10 µM | > 10 µM | > 10 µM |
| C[C@@H](c1ccccc1-c1ccc(F)cc1)n1cncc1C(=O)N1CCC(NC2CCC(O)CC2)CC1 (some centres unmarked) [Compound 25] | > 50 µM | 0.0092 µM | > 50 µM | 5.85 µM | > 10 µM | > 10 µM | > 10 µM |
| C[C@@H](c1ccccc1-c1ccc(F)cc1)n1cncc1C(=O)N1CCC(N2CCn3c(nnc3C(F)(F)F)C2)CC1 [Compound 26] | 14.6 µM | 0.0064 µM | > 50 µM | ≥ 10 µM | > 10 µM | 6.29 µM | > 10 µM |
| C[C@@H](c1ccccc1-c1ccc(F)cc1)n1cncc1C(=O)N1CCC(N2CCn3ncnc3C2)CC1 [Compound 27] | 11.1 µM | 0.0058 µM | 23.9 µM | > 10 µM | > 10 µM | > 10 µM | > 10 µM |
| C[C@@H](c1ccccc1-c1ccc(F)cc1)n1cncc1C(=O)N1CCC(N2CCc3nccnc3C2)CC1 [Compound 28] | 14.9 µM | 0.0054 µM | > 50 µM | > 10 µM | > 10 µM | > 10 µM | > 10 µM |
